Laboratory results published in ChEMBL document CHEMBL3992491, “Discovery, structure-activity relationship studies, and anti-nociceptive effects of N-(1,2,3,4-tetrahydro-1-isoquinolinylmethyl)benzamides as novel opioid receptor agonists” (Eur J Med Chem, 2017).
Activity calls are given as the source filed them. No cut-off for these calls is given here.

Legend:
[1] = molecular target: T1, Mu-type opioid receptor (Homo sapiens, UniProt P35372); assay: Agonist activity at human MOR expressed in HEK293 cells assessed as inhibition of forskolin-induced adenylyl cyclase-mediated cAMP accumulation after 30 mins by HTRF assay; assay type: functional, cell-based
T1 sequence (P35372 whole entry): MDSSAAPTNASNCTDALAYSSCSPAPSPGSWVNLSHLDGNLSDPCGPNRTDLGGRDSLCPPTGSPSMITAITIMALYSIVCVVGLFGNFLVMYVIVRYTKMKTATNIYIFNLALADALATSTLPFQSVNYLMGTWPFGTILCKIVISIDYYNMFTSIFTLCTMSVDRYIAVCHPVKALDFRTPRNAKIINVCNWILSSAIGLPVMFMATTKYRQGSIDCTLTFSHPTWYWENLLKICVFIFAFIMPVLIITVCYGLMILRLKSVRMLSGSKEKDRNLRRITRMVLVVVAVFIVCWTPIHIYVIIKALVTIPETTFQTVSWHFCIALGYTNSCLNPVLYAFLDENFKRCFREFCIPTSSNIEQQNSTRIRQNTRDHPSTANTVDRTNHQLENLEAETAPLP

[2] = molecular target: Delta-type opioid receptor (Homo sapiens, UniProt P41143); assay: Agonist activity at human DOR expressed in HEK293 cells assessed as inhibition of forskolin-induced adenylyl cyclase-mediated cAMP accumulation after 30 mins by HTRF assay; assay type: functional, cell-based
Chain of Delta-type opioid receptor (P41143 whole entry): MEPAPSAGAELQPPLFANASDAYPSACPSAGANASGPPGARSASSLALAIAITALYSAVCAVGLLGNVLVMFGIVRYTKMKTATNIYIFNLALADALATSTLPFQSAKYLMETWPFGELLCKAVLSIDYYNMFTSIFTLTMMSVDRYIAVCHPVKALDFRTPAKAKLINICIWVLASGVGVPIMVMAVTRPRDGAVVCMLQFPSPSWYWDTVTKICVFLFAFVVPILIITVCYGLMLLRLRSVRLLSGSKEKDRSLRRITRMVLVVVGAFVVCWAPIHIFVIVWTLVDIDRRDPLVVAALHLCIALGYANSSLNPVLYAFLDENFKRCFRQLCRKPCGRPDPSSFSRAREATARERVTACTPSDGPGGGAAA

[3] = molecular target: T2, Kappa-type opioid receptor (Homo sapiens, UniProt P41145); assay: Agonist activity at human KOR expressed in HEK293 cells assessed as inhibition of forskolin-induced adenylyl cyclase-mediated cAMP accumulation after 30 mins by HTRF assay; assay type: functional, cell-based
T2 sequence (P41145 whole entry): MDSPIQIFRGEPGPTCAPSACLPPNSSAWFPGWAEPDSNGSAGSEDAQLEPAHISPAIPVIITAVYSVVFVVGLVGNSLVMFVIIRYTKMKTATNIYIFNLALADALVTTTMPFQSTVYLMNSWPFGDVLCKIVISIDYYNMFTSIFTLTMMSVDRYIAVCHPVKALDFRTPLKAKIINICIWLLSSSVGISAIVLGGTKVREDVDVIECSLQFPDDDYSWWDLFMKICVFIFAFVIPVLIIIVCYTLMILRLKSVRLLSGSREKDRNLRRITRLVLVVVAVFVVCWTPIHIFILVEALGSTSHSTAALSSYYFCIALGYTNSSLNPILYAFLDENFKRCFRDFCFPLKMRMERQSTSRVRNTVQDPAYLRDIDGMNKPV

[4] = molecular target: T1, Mu-type opioid receptor; assay: Displacement of [3H]naloxone from recombinant human MOR expressed in HEK cell membranes incubated for 60 mins
[5] = molecular target: T1, Mu-type opioid receptor; assay: Agonist activity at myc-tagged MOR (unknown origin) expressed in mouse AtT-20 cells harboring GIRK1/GIRK2 channels assessed as stimulation of membrane potential hyperpolarization at 1 uM by FLIPR assay; assay type: cell-based
[6] = molecular target: T1, Mu-type opioid receptor; assay: Agonist activity at myc-tagged MOR (unknown origin) expressed in mouse AtT-20 cells harboring GIRK1/GIRK2 channels assessed as membrane potential hyperpolarization at 1 uM in presence of naloxone by FLIPR membrane potential; assay type: cell-based
[7] = Drug uptake in […] mouse plasma at 3 mg/kg, iv measured after 0.8 hrs by LC-MS/MS analysis; assay type: ADME, organism-based
[8] = Drug uptake in […] mouse brain at 3 mg/kg, iv measured after 0.8 hrs by LC-MS/MS analysis; assay type: ADME, organism-based; conditions: read-out: Drug uptake
[9] = Ratio of drug level in brain to plasma in […] mouse at 3 mg/kg, iv measured after 0.8 hrs; assay type: ADME, organism-based; conditions: read-out: BPR
[10] = tested on: Mus musculus; assay: Antinociceptive activity in B6 mouse assessed as AUC of thermal withdrawal effect at 3 mg/kg, iv measured at every 10 mins for 1 hr by tail flick assay; assay type: functional, organism-based
[11] = tested on: Mus musculus; assay: Antinociceptive activity in iv dosed B6 mouse assessed as increase in tail flick latency at 3 mg/kg, iv measured at every 10 mins for 1 hr; assay type: functional
[12] = tested on: Mus musculus; assay: Antinociceptive activity in iv dosed B6 mouse assessed as increase in tail flick latency at 3 mg/kg, iv measured at every 10 mins for 1 hr in presence of opioid antagonist naloxone; assay type: functional, organism-based
[13] = molecular target: T2, Kappa-type opioid receptor; assay: Agonist activity at human KOR expressed in HEK293 cells assessed as inhibition of forskolin-induced adenylyl cyclase-mediated cAMP accumulation at 1 uM after 30 mins in presence of KOR antagonist nor-binaltorphimine by HTRF assay; assay type: functional, cell-based

Row | SMILES | IC50 [1] [nM] | IC50 [3] [nM] | Imax [3] [%] | Ki [4] [nM] | IC50 ([2]; hek293) | Imax [1] [%] | other results
1 | O=C(NCC1NCCc2ccccc21)c1ccc(F)cc1 (configuration not stated) | 830 | 18600 | 38.9 | – | – | – | Imax [2]: 22%; IC50 ([2]; read-out: IC50): 40 nM
2 | O=C(NCC1NCCc2ccccc21)c1ccc(Cl)c(Cl)c1 (configuration not stated) | 230 | 810 | 27.5 | 54.3 | Not Active | – | –
3 | CN1CCc2ccccc2C1CNC(=O)c1ccc(Cl)c(Cl)c1 (configuration not stated) | 50 | 440 | 28.3 | 6.91 | Not Active | 69.5 | Activity [5]: 20%; Activity [6]: inactive; concentration at 0.8 h [7]: 2610 ng/mL; concentration at 0.8 h [8]: 11700 ng/g; Kp at 0.8 h [9]: 4.5; AUC [10]: 371 min.sec; ED50 [11]: 1.06 mg/kg; Activity [12]: inactive; Activity [13]: inactive
4 | O=C(NCC1NCCc2ccccc21)c1cccc(Cl)c1 (configuration not stated) | 2030 | 1120 | 26.9 | – | – | 78.2 | Imax [2]: 21.1%; IC50 ([2]; read-out: IC50): 170 nM
5 | Cc1ccc(C(=O)NCC2NCCc3ccccc32)cc1 (configuration not stated) | – | – | – | 6.47 | – | – | –
6 | Cc1ccc(C(=O)NCC2c3ccccc3CCN2C)cc1C (configuration not stated) | 80 | 80 | 34.6 | 30.8 | Not Active | 69.3 | Activity [5]: 20%; Activity [6]: inactive; concentration at 0.8 h [7]: 1460 ng/mL; concentration at 0.8 h [8]: 7420 ng/g; Kp at 0.8 h [9]: 5.1; AUC [10]: 268 min.sec; Activity [12]: inactive
7 | O=C(NCC1NCCc2ccccc21)c1ccc(Cl)cc1 (configuration not stated) | 220 | 90 | 35.1 | – | – | – | Imax [2]: 24.1%; IC50 ([2]; read-out: IC50): 4180 nM
8 | CCc1ccc(C(=O)NCC2NCCc3ccccc32)cc1 (configuration not stated) | 310 | 570 | 29 | 4.65 | Not Active | 63.9 | –
9 | Cc1ccc(C(=O)NCC2NCCc3ccccc32)cc1C (configuration not stated) | 290 | 8930 | 27 | 36.4 | Not Active | – | –
10 | O=C(NCC1NCCc2ccccc21)c1ccc(OC(F)(F)F)cc1 (configuration not stated) | 1220 | 260 | 38.2 | – | – | – | Imax [2]: 22.7%; IC50 ([2]; read-out: IC50): 40 nM
11 | CCc1ccc(C(=O)NCC2c3ccccc3CCN2C)cc1 (configuration not stated) | 3280 | 490 | 26.3 | 2.27 | – | 61.9 | Imax [2]: 22.1%; IC50 ([2]; read-out: IC50): 190 nM
12 | C[C@@H](NC(=O)[C@@H](N)Cc1ccc(O)cc1)C(=O)NCC(=O)N(C)[C@@H](Cc1ccccc1)C(=O)NCCO | – | – | – | – | – | 82.4 | –
13 | Cc1cccc(C(=O)NCC2NCCc3ccccc32)c1 (configuration not stated) | 1270 | 140 | 26.6 | – | Not Active | 68.3 | –
14 | O=C(NCC1c2ccccc2CCN1S(=O)(=O)c1ccc(Br)cc1OC(F)(F)F)C1CCCCC1 (configuration not stated) | – | – | – | – | – | – | concentration at 0.8 h [7]: 1290 ng/mL; concentration at 0.8 h [8]: 1440 ng/g; Kp at 0.8 h [9]: 1.1
15 | CCCCN1CCc2ccccc2C1CNC(=O)c1ccc(C)cc1 (configuration not stated) | 1330 | 780 | 24.1 | – | Not Active | 69.3 | –
16 | Cc1ccc(C(=O)NCC2c3ccccc3CCN2C)cc1 (configuration not stated) | 650 | 140 | 27.1 | 5.28 | Not Active | 72.4 | –
17 | COc1ccc(C(=O)NCC2NCCc3ccccc32)cc1 (configuration not stated) | 1580 | 50 | 21.8 | – | Not Active | – | –
18 | Cc1ccc(C(=O)NCC2c3ccccc3CCN2CCCl)cc1 (configuration not stated) | 200 | 2940 | 30 | – | Not Active | 67.8 | –
